In patent US6706740B2, “Fungicidal heterocyclic aromatic amides and their compositions, methods of use and preparation” (Dow AgroSciences LLC, priority 1999, dated 2004):

Tested on: Septoria tritici—SEPTTR
Test: Leaf Blotch of Wheat, in vivo whole plant, 24 Hour Protectant
Details: 100 ppm spray, 24 hour protectant, wheat; control of fungal infection vs untreated plants

Row | SMILES | SEPTTR in vivo 1 Day Protectant
1 | COc1ccnc(C(=O)NCC#Cc2ccccc2)c1O [Compound 240] | + +

Same assay, conditions: Zymoseptoria tritici, 24 h, 100 ppm spray, 24 hour protectant, wheat; control of fungal infection vs untreated plants; read-out: SEPTTR in vivo 1 Day Protectant

Row | SMILES | pest or weed control at 100 ppm [%]
2 | COc1ccnc(C(=O)NCC2C(C=C(C)C)C2(C)C)c1O (centres unmarked) [Compound 241] | 25 to 74
3 | CCC1(C)OCC(NC(=O)c2nccc(OC)c2O)CO1 (centres unmarked) [Compound 314] | < 25
4 | O=C(NCCCCc1ccccc1)c1ncccc1O [Compound 234] | 25 to 74
5 | C[C@H]1C2CC([C@H]3CCC[C@@H]23)[C@@H]1NC(=O)c1ncccc1O (some centres unmarked) [Compound 207] | < 25
6 | COc1ccnc(C(=O)NC2C[C@H](C)O[C@@](C)(Cc3ccccc3)C2)c1O (some centres unmarked) [Compound 312] | 25 to 74
7 | COc1ccnc(C(=O)N[C@H]2CO[C@@](C)(C(C)CC3=C(C)CCCC3(C)C)OC2)c1O (some centres unmarked) [Compound 318] | 25 to 74

Tested on: Rhizoctonia solani (RHIZSO)
Test: microbe, parasite or virus in culture
Format: cell-based
Details: Rhizoctonia solani, read-out: RHIZSO in vitro Growth Inhibition

Row | SMILES | inhibition at 25 ppm [%]
8 | COc1ccnc(C(=O)NCC2C(C=C(C)C)C2(C)C)c1O (centres unmarked) [Compound 241] | > 80
9 | CCC1(C)OCC(NC(=O)c2nccc(OC)c2O)CO1 (centres unmarked) [Compound 314] | < 80
10 | O=C(NCCCCc1ccccc1)c1ncccc1O [Compound 234] | < 80
11 | COc1ccnc(C(=O)NCC#Cc2ccccc2)c1O [Compound 240] | < 80
12 | C[C@H]1C2CC([C@H]3CCC[C@@H]23)[C@@H]1NC(=O)c1ncccc1O (some centres unmarked) [Compound 207] | < 80
13 | COc1ccnc(C(=O)NC2C[C@H](C)O[C@@](C)(Cc3ccccc3)C2)c1O (some centres unmarked) [Compound 312] | < 80
14 | COc1ccnc(C(=O)N[C@H]2CO[C@@](C)(C(C)CC3=C(C)CCCC3(C)C)OC2)c1O (some centres unmarked) [Compound 318] | > 80

Tested on: Phytophthora infestans (PHYTIN)
Test: microbe, parasite or virus in culture
Format: cell-based
Details: Phytophthora infestans, read-out: PHYTIN in vitro Growth Inhibition

Row | SMILES | inhibition at 25 ppm [%]
15 | COc1ccnc(C(=O)NCC2C(C=C(C)C)C2(C)C)c1O (centres unmarked) [Compound 241] | > 80
16 | CCC1(C)OCC(NC(=O)c2nccc(OC)c2O)CO1 (centres unmarked) [Compound 314] | < 80
17 | O=C(NCCCCc1ccccc1)c1ncccc1O [Compound 234] | > 80
18 | COc1ccnc(C(=O)NCC#Cc2ccccc2)c1O [Compound 240] | < 80
19 | C[C@H]1C2CC([C@H]3CCC[C@@H]23)[C@@H]1NC(=O)c1ncccc1O (some centres unmarked) [Compound 207] | < 80
20 | COc1ccnc(C(=O)NC2C[C@H](C)O[C@@](C)(Cc3ccccc3)C2)c1O (some centres unmarked) [Compound 312] | < 80
21 | COc1ccnc(C(=O)N[C@H]2CO[C@@](C)(C(C)CC3=C(C)CCCC3(C)C)OC2)c1O (some centres unmarked) [Compound 318] | > 80

Tested on: Leptosphaeria nodorum—LEPTNO
Test: Glume Blotch of Wheat, in vivo whole plant, 24 Hour Protectant
Details: Leptosphaeria; 100 ppm spray, 24 hour protectant, wheat; control of fungal infection vs untreated plants; read-out: LEPTNO in vivo 1 Day Protectant

Row | SMILES | pest or weed control at 100 ppm [%]
22 | COc1ccnc(C(=O)NCC2C(C=C(C)C)C2(C)C)c1O (centres unmarked) [Compound 241] | 25 to 74
23 | CCC1(C)OCC(NC(=O)c2nccc(OC)c2O)CO1 (centres unmarked) [Compound 314] | 25 to 74
24 | O=C(NCCCCc1ccccc1)c1ncccc1O [Compound 234] | < 25
25 | COc1ccnc(C(=O)NCC#Cc2ccccc2)c1O [Compound 240] | 25 to 74
26 | C[C@H]1C2CC([C@H]3CCC[C@@H]23)[C@@H]1NC(=O)c1ncccc1O (some centres unmarked) [Compound 207] | < 25
27 | COc1ccnc(C(=O)NC2C[C@H](C)O[C@@](C)(Cc3ccccc3)C2)c1O (some centres unmarked) [Compound 312] | 25 to 74
28 | COc1ccnc(C(=O)N[C@H]2CO[C@@](C)(C(C)CC3=C(C)CCCC3(C)C)OC2)c1O (some centres unmarked) [Compound 318] | 25 to 74

Tested on: Puccinia recondita—PUCCRT
Test: Brown Rust of Wheat, in vivo whole plant, 24 Hour Protectant
Details: Puccinia; 100 ppm spray, 24 hour protectant, wheat; control of fungal infection vs untreated plants; read-out: PUCCRT in vivo 1 Day Protectant

Row | SMILES | pest or weed control at 100 ppm [%]
29 | COc1ccnc(C(=O)NCC2C(C=C(C)C)C2(C)C)c1O (centres unmarked) [Compound 241] | 25 to 74
30 | CCC1(C)OCC(NC(=O)c2nccc(OC)c2O)CO1 (centres unmarked) [Compound 314] | < 25
31 | O=C(NCCCCc1ccccc1)c1ncccc1O [Compound 234] | < 25
32 | COc1ccnc(C(=O)NCC#Cc2ccccc2)c1O [Compound 240] | < 25
33 | C[C@H]1C2CC([C@H]3CCC[C@@H]23)[C@@H]1NC(=O)c1ncccc1O (some centres unmarked) [Compound 207] | < 25
34 | COc1ccnc(C(=O)NC2C[C@H](C)O[C@@](C)(Cc3ccccc3)C2)c1O (some centres unmarked) [Compound 312] | < 25
35 | COc1ccnc(C(=O)N[C@H]2CO[C@@](C)(C(C)CC3=C(C)CCCC3(C)C)OC2)c1O (some centres unmarked) [Compound 318] | 25 to 74

Tested on: Phytophthora infestans—PHYTIN
Test: whole plant or invertebrate
Format: in vivo
Details: Phytophthora, in Solanum lycopersicum, 24 h, read-out: PHYTIN in vivo 1 Day Protectant

Row | SMILES | pest or weed control at 100 ppm [%]
36 | COc1ccnc(C(=O)NCC2C(C=C(C)C)C2(C)C)c1O (centres unmarked) [Compound 241] | < 25
37 | CCC1(C)OCC(NC(=O)c2nccc(OC)c2O)CO1 (centres unmarked) [Compound 314] | < 25
38 | O=C(NCCCCc1ccccc1)c1ncccc1O [Compound 234] | < 25
39 | COc1ccnc(C(=O)NCC#Cc2ccccc2)c1O [Compound 240] | < 25
40 | C[C@H]1C2CC([C@H]3CCC[C@@H]23)[C@@H]1NC(=O)c1ncccc1O (some centres unmarked) [Compound 207] | < 25
41 | COc1ccnc(C(=O)NC2C[C@H](C)O[C@@](C)(Cc3ccccc3)C2)c1O (some centres unmarked) [Compound 312] | < 25
42 | COc1ccnc(C(=O)N[C@H]2CO[C@@](C)(C(C)CC3=C(C)CCCC3(C)C)OC2)c1O (some centres unmarked) [Compound 318] | 25 to 74

Tested on: Ustilago maydis (USTIMA)
Test: microbe, parasite or virus in culture
Format: cell-based
Details: Mycosarcoma maydis, read-out: USTIMA in vitro Growth Inhibition

Row | SMILES | inhibition at 25 ppm [%]
43 | COc1ccnc(C(=O)NCC2C(C=C(C)C)C2(C)C)c1O (centres unmarked) [Compound 241] | < 80
44 | CCC1(C)OCC(NC(=O)c2nccc(OC)c2O)CO1 (centres unmarked) [Compound 314] | < 80
45 | O=C(NCCCCc1ccccc1)c1ncccc1O [Compound 234] | < 80
46 | COc1ccnc(C(=O)NCC#Cc2ccccc2)c1O [Compound 240] | < 80
47 | C[C@H]1C2CC([C@H]3CCC[C@@H]23)[C@@H]1NC(=O)c1ncccc1O (some centres unmarked) [Compound 207] | < 80
48 | COc1ccnc(C(=O)NC2C[C@H](C)O[C@@](C)(Cc3ccccc3)C2)c1O (some centres unmarked) [Compound 312] | < 80
49 | COc1ccnc(C(=O)N[C@H]2CO[C@@](C)(C(C)CC3=C(C)CCCC3(C)C)OC2)c1O (some centres unmarked) [Compound 318] | < 80

Tested on: Stagonospora nodorum (Leptosphaeria nodorum—LEPTNO)
Test: In vitro fungal growth inhibition, Stagonospora nodorum (LEPTNO)
Format: cell-based
Details: Leptosphaeria; 25 ppm in growth medium; read-out: LEPTNO in vitro Growth Inhibition

Row | SMILES | inhibition at 25 ppm [%]
50 | COc1ccnc(C(=O)NCC2C(C=C(C)C)C2(C)C)c1O (centres unmarked) [Compound 241] | < 80
51 | CCC1(C)OCC(NC(=O)c2nccc(OC)c2O)CO1 (centres unmarked) [Compound 314] | < 80
52 | O=C(NCCCCc1ccccc1)c1ncccc1O [Compound 234] | > 80
53 | COc1ccnc(C(=O)NCC#Cc2ccccc2)c1O [Compound 240] | < 80
54 | C[C@H]1C2CC([C@H]3CCC[C@@H]23)[C@@H]1NC(=O)c1ncccc1O (some centres unmarked) [Compound 207] | > 80
55 | COc1ccnc(C(=O)NC2C[C@H](C)O[C@@](C)(Cc3ccccc3)C2)c1O (some centres unmarked) [Compound 312] | < 80
56 | COc1ccnc(C(=O)N[C@H]2CO[C@@](C)(C(C)CC3=C(C)CCCC3(C)C)OC2)c1O (some centres unmarked) [Compound 318] | > 80

Tested on: Magnaporthe grisea (Pyricularia oryzae—PYRIOR)
Test: microbe, parasite or virus in culture
Format: cell-based
Details: Pyricularia oryzae, read-out: PYRIOR in vitro Growth Inhibition

Row | SMILES | inhibition at 25 ppm [%]
57 | COc1ccnc(C(=O)NCC2C(C=C(C)C)C2(C)C)c1O (centres unmarked) [Compound 241] | < 80
58 | CCC1(C)OCC(NC(=O)c2nccc(OC)c2O)CO1 (centres unmarked) [Compound 314] | < 80
59 | O=C(NCCCCc1ccccc1)c1ncccc1O [Compound 234] | > 80
60 | COc1ccnc(C(=O)NCC#Cc2ccccc2)c1O [Compound 240] | < 80
61 | C[C@H]1C2CC([C@H]3CCC[C@@H]23)[C@@H]1NC(=O)c1ncccc1O (some centres unmarked) [Compound 207] | > 80
62 | COc1ccnc(C(=O)NC2C[C@H](C)O[C@@](C)(Cc3ccccc3)C2)c1O (some centres unmarked) [Compound 312] | < 80
63 | COc1ccnc(C(=O)N[C@H]2CO[C@@](C)(C(C)CC3=C(C)CCCC3(C)C)OC2)c1O (some centres unmarked) [Compound 318] | < 80

Tested on: Erysiphe graminis—ERYSGT
Test: Powdery Mildew of Wheat, in vivo whole plant, 24 Hour Protectant
Details: Erysiphe; 100 ppm spray, 24 hour protectant, wheat; control of fungal infection vs untreated plants; read-out: ERYSGT in vivo 1 Day Protectant

Row | SMILES | pest or weed control at 100 ppm [%]
64 | COc1ccnc(C(=O)NCC2C(C=C(C)C)C2(C)C)c1O (centres unmarked) [Compound 241] | < 25
65 | CCC1(C)OCC(NC(=O)c2nccc(OC)c2O)CO1 (centres unmarked) [Compound 314] | < 25
66 | O=C(NCCCCc1ccccc1)c1ncccc1O [Compound 234] | < 25
67 | COc1ccnc(C(=O)NCC#Cc2ccccc2)c1O [Compound 240] | < 25
68 | C[C@H]1C2CC([C@H]3CCC[C@@H]23)[C@@H]1NC(=O)c1ncccc1O (some centres unmarked) [Compound 207] | < 25
69 | COc1ccnc(C(=O)NC2C[C@H](C)O[C@@](C)(Cc3ccccc3)C2)c1O (some centres unmarked) [Compound 312] | 25 to 74
70 | COc1ccnc(C(=O)N[C@H]2CO[C@@](C)(C(C)CC3=C(C)CCCC3(C)C)OC2)c1O (some centres unmarked) [Compound 318] | < 25

Tested on: Mycosphaerella graminicola (Septoria tritici—SEPTTR)
Test: In vitro fungal growth inhibition, Mycosphaerella graminicola (SEPTTR)
Format: cell-based
Details: Zymoseptoria tritici; 25 ppm in growth medium; read-out: SEPTTR in vitro Growth Inhibition

Row | SMILES | inhibition at 25 ppm [%]
71 | COc1ccnc(C(=O)NCC2C(C=C(C)C)C2(C)C)c1O (centres unmarked) [Compound 241] | < 80
72 | CCC1(C)OCC(NC(=O)c2nccc(OC)c2O)CO1 (centres unmarked) [Compound 314] | < 80
73 | O=C(NCCCCc1ccccc1)c1ncccc1O [Compound 234] | < 80
74 | COc1ccnc(C(=O)NCC#Cc2ccccc2)c1O [Compound 240] | < 80
75 | C[C@H]1C2CC([C@H]3CCC[C@@H]23)[C@@H]1NC(=O)c1ncccc1O (some centres unmarked) [Compound 207] | > 80
76 | COc1ccnc(C(=O)NC2C[C@H](C)O[C@@](C)(Cc3ccccc3)C2)c1O (some centres unmarked) [Compound 312] | < 80
77 | COc1ccnc(C(=O)N[C@H]2CO[C@@](C)(C(C)CC3=C(C)CCCC3(C)C)OC2)c1O (some centres unmarked) [Compound 318] | > 80
